Test results published in patent EP4692072A1, “PHOTOCHROMIC COMPOUND, PROPARGYL ALCOHOL COMPOUND, CURABLE COMPOSITION, OPTICAL ARTICLE, LENS, AND SPECTACLES” (TOKUYAMA CORPORATION, priority 2023, dated 2024).

Tests used:
Format in all cases: physicochemical
[1] = Photochromic properties of photochromic laminate (plastic lens) prepared by coating method; details: 40 µm photochromic layer on thiourethane lens, 0.25 mmol compound per 100 g monomers, after color development
Text: (§1) First, the photochromic compound obtained in Example 1, a photoinitiator, and a polymerizable compound were mixed to obtain a curable composition.
(§2) Polyethylene glycol dimethacrylate (average molecular weight: 736): 42 parts by mass • Polyethylene glycol dimethacrylate (average molecular weight: 536): 12 parts by mass • Trimethylolpropane trimethacrylate: 38 parts by mass γ-methacryloyloxypropyl trimethoxysilane: 2 parts by mass Glycidyl methacrylate: 1 part by mass
(§3) Note that the photochromic compound was added to the curable composition so that the amount of the photochromic compound was 0.25 mmol based on 100 g of the total amount of the radical-polymerizable monomers.
(§4) Phenylbis(2,4,6-trimethylbenzoyl)phosphine oxide (photoinitiator: Omnirad 819): 0.3 parts by mass Ethylene bis(oxyethylene) bis[3-(5-tert-butyl-4-hydroxy-m-tolyl)propionate] (stabilizer, Irganox 245): 1 part by mass Bis(1,2,2,6,6-pentamethyl-4-piperidyl) sebacate: 3 parts by mass Leveling agent (L7001) manufactured by Dow Corning Toray Co.,Ltd.: 0.1 part by mass
(§5) First, a thiourethane-based plastic lens having a central thickness of 2 mm and a refractive index of 1.60 was prepared as the optical substrate. Note that this thiourethane-based plastic lens was pre-treated by alkaline etching with a 10% sodium hydroxide aqueous solution at 50°C for 5 minutes, followed by sufficient washing with distilled water.
(§6) A surface of the above-described plastic lens was coated with a moisture-curable primer (product name: TR-SC-P, manufactured by Tokuyama Corporation) at a rotation frequency of 70 rpm for 15 seconds, followed by 1000 rpm for 10 seconds, using a spin coater (1H-DX2, manufactured by MIKASA CO., LTD), Subsequently, about 2 g of the photochromic curable composition obtained above was spin-coated at a rotation frequency of 60 rpm for 40 seconds, followed by 600 rpm for 10 to 20 seconds, to form a photochromic coating layer with a film thickness of 40 µm.
(§7) The lens with the surface coated with the photochromic curable composition (photochromic coating layer) was irradiated with light using a metal halide lamp with an output power of 200 mW/cm^2 in a nitrogen gas atmosphere for 90 seconds to cure the coating film. Subsequently, the lens was further heated at 110°C for 1 hour to prepare a photochromic laminate having a photochromic layer.
In the same manner as in Example 26, photochromic laminates were prepared using the photochromic compounds obtained in Examples 2 to 25.
(§8) • [1] Maximum Absorption Wavelength (λmax): The maximum absorption wavelength after color development, measured using a spectrophotometer (instantaneous multichannel photodetector MCPD3000) manufactured by Otsuka Electronics Co., Ltd. was used as an indicator for the color tone during the color development. • [2] 23°C Color Optical Density (A23): A difference between an absorbancy measured after light irradiation at 23°C for 300 seconds {ε(300)} and an absorbancy without light irradiation ε(0) at the maximum absorption wavelength was used as an indicator for the color optical density. […] 23°C color fading half-life [τ1/2 (sec.)]: A time required for the absorbancy of the sample at the maximum absorption wavelength to decrease to 1/2 of {ε(300)-ε(0)} when the light irradiation was terminated after the light irradiation at 23°C for 300 seconds, was used as an indicator for the color fading speed. The shorter this time, the higher the color fading speed. • [4] Residual rate (A120/A0×100): The obtained photochromic plastic lens was subjected to accelerated deterioration using a xenon weather meter X25 manufactured by Suga Test Instruments Co., Ltd. for 120 hours. Subsequently, the color optical density was evaluated before and after the test, then a color optical density before the test (A0) and a color optical density after the test (A120) were measured, and a ratio (A120/A0) was defined as a residual rate. The residual rate was used as an indicator for a color developing durability. […]

[2] = Accelerated deterioration (xenon weather meter X25, 120 hours) of photochromic cured product prepared by kneading method; details: 1 mm cured product, 0.106 mmol per 100 g monomer, A120/A0×100 after 120 hours xenon weather meter
Method: (§9) • [1] Maximum Absorption Wavelength (λmax): The maximum absorption wavelength after color development, measured using a spectrophotometer (instantaneous multichannel photodetector MCPD3000) manufactured by Otsuka Electronics Co., Ltd. was used as an indicator for the color tone during the color development. • [2] 23°C Color Optical Density (A23): A difference between an absorbancy measured after light irradiation at 23°C for 300 seconds {ε(300)} and an absorbancy without light irradiation ε(0) at the maximum absorption wavelength was used as an indicator for the color optical density. […] 23°C color fading half-life [τ1/2 (sec.)]: A time required for the absorbancy of the sample at the maximum absorption wavelength to decrease to 1/2 of {ε(300)-ε(0)} when the light irradiation was terminated after the light irradiation at 23°C for 300 seconds, was used as an indicator for the color fading speed. The shorter this time, the higher the color fading speed. • [4] Residual rate (A120/A0×100): The obtained photochromic plastic lens was subjected to accelerated deterioration using a xenon weather meter X25 manufactured by Suga Test Instruments Co., Ltd. for 120 hours. Subsequently, the color optical density was evaluated before and after the test, then a color optical density before the test (A0) and a color optical density after the test (A120) were measured, and a ratio (A120/A0) was defined as a residual rate. The residual rate was used as an indicator for a color developing durability. The higher the residual rate, the higher the color developing durability. The results of Examples 26, 50, and Comparative Examples 1 to 8 are summarized in Table 1, and the results of Examples 27 to 49 are summarized in Tables 2 and 3.
(§10) First, the photochromic compound obtained in Example 1, additives, and a polymerizable compound were mixed to obtain a curable composition.
(§11) As the polymerizable compound, a combination of the following polymerizable monomers was used. • 1,3-bis(isocyanatomethyl)cyclohexane: 36.7 parts by mass Pentaerythritol tetrakis(3-mercaptopropionate): 39.4 parts by mass • Polyoxyethylene polyoxypropylene lauryl ether (Wonder Surf 140 manufactured by Aoki Oil Industrial Co., Ltd.): 17.4 parts by mass • 1-decanethiol: 2.8 parts by mass • RX-1 adjusted according to the method described in Patent Document 13: 3.8 parts by mass
(§12) Note that the photochromic compound was added to the curable composition so that the amount of the photochromic compound was 0.106 mmol based on 100 g of the total amount of the polymerizable monomer. The following additives were used: Dimethyltin dichloride • : 0.05 part by mass • Irganox 245: 0.1 part by mass • 2-ethylhexyl 4-methoxycinnamate: 0.6 part by mass
(§13) The prepared curable composition was thoroughly defoamed, then injected into a glass mold having a 1 mm gap, and polymerized by cast polymerization. The polymerization was carried out in an air furnace while gradually raising the temperature from 27°C to 120°C over 18 hours. After the polymerization, the cured product was removed from the glass mold to obtain a photochromic cured product having a thickness of 1 mm. The obtained photochromic cured product was evaluated in the same manner as in Example 26.
(§14) (Examples 85 to 99, and Comparative Example 14 to 18) Photochromic cured products were prepared using photochromic compounds presented in Tables 6 and 7 in the same manner as in Example 84. The results of Examples 84 and 85 and Comparative Examples 14 to 18 are summarized in Table 6, and the results of Examples 86 to 99 are summarized in Table 7.

[3] = Photochromic properties of photochromic cured product prepared by kneading method; details: 0.106 mmol per 100 g monomer
Method: as §9, §10, §11, §12, §13, §14

[4] = Accelerated deterioration (xenon weather meter X25, 120 hours) of photochromic laminate prepared by coating method; details: 0.25 mmol per 100 g monomers, A120/A0×100 after 120 hours xenon weather meter
Text: as §1, §2, §3, §4, §5, §6, §7
as §8, with “durability. The higher the residual rate, the higher the color developing durability.” for “durability.”

- Maximum absorption wavelength [1]: 522 nm
- Residual rate [2]: 72%
- A23 ([3]; 1 mm cured product, 23°C color optical density ε(300)-ε(0)): 1.41 -
- Maximum absorption wavelength ([3]; 1 mm thiourethane cured product, after color development): 526 nm
- Residual rate [4]: 67%
Structure (SMILES): CCC1(CC)CCC2(CC1)c1ccccc1-c1c2c2c(c3cc(OC)c(N(c4ccccc4)c4ccccc4)cc13)OC(c1ccc(C)cc1)(c1ccc(N(C)c3ccc(C)cc3)cc1)C=C2 (centres unmarked) [Example 2]
